This test concerns human peripheral blood monocytes. Briefly: FACS analysis of cell surface markers on cultured peripheral blood monocytes. Format: cell-based. The conditions noted are these: for effect of agent on ionophore-induced activated myeloid dendritic cell phenotype: added to calcium ionophore treatment.
The mark [1] stands for this setting: KT5926 1 uM, 750 ng/ml ionophore, 24 hours.

Entries after “also recorded” stand apart in the source; their conditions may differ.

Take `C[C@H]1O[C@@H](n2cnc3c(N)ncnc32)C[C@@H]1O` [2′5′-DDA]: the “effect of agent on ionophore-induced activated myeloid dendritic cell phenotype” value was “enhanced CD14 downregulation and upregulation of costimulatory, MHC, and other molecule expression”.
With `CN([C@@H](Cc1ccc(OS(=O)(=O)c2cccc3cnccc23)cc1)C(=O)N1CCN(c2ccccc2)CC1)S(=O)(=O)c1cccc2cnccc12` [KN-62], the “effect of agent on ionophore-induced activated myeloid dendritic cell phenotype” value is listed as “inhibited at least some of the ionophore's effects”.
The same measure, in the same setting: under `COC(=O)[C@@]1(OC)C[C@H]2O[C@]1(C)n1c3ccccc3c3c4c(c5c6ccccc6n2c5c31)C(=O)N(C)C4` [KT5823] stands “inhibited at least some of the ionophore's effects”.
`CCCOc1ccc2c(c1)c1c3c(c4c5ccccc5n5c4c1n2[C@H]1C[C@](O)(C(=O)OC)[C@]5(C)O1)CNC3=O` [KT-5926]: the “effect of agent on ionophore-induced activated myeloid dendritic cell phenotype” value is given as “inhibited at least some of the ionophore's effects”. Also, under setting [1], the “suppression of CD40” value is on record as over 50%, the “suppression of CD80” value is over 60%, the “suppression of CD86” value is “about 50%” and the “suppression of HLA-ABC” value was “over 40%”. Under setting [1], the “suppression of HLA-DR” value was “modest, but detectable suppression”.
On to `CCCCC[C@H](O)/C=C/[C@H]1[C@H](O)CC(=O)[C@@H]1C/C=C\CCCC(=O)O` [PGE2], for which the “effect of agent on ionophore-induced activated myeloid dendritic cell phenotype” value is “inhibited at least some of the ionophore's effects”.
As to `C[C@@H]1[C@H](O)[C@@H](C)/C=C/C=C/C=C/C=C/C=C/C=C/C=C/[C@H](O[C@@H]2O[C@H](C)[C@@H](O)[C@H](N)[C@@H]2O)C[C@@H]2O[C@](O)(C[C@@H](O)C[C@@H](O)[C@H](O)CC[C@@H](O)C[C@@H](O)CC(=O)O[C@H]1C)C[C@H](O)[C@H]2C(=O)O` [amphotericin B], the “effect of agent on ionophore-induced activated myeloid dendritic cell phenotype” value is “enhanced the induction of an activated myeloid dendritic cell phenotype; also recorded: enhance calcium ionophore's effect”. Also, the “effect of agent alone on monocytes” value (without ionophore) is recorded as “no or little effect alone”.
As to `CCCC(=O)Nc1ncnc2c1ncn2[C@@H]1O[C@@H]2COP(=O)(O)O[C@H]2[C@H]1OC(=O)CCC` [dibutryl cAMP], the “effect of agent on ionophore-induced activated myeloid dendritic cell phenotype” value is on record as “inhibited at least some of the ionophore's effects”.
On the same count and under the same terms, to `CCCC(=O)Nc1nc2c(ncn2C2O[C@H]3COP(=O)(O)O[C@@H]3[C@@H]2OC(=O)CCC)c(=O)[nH]1` (stereo partly drawn) [dibutryl cGMP] belongs “enhanced CD14 downregulation and upregulation of costimulatory, MHC, and other molecule expression”; to `CO[C@H]1[C@@H](OC)C[C@H](C)[C@@H](OC)C2=CC(=O)C=C(NC(=O)/C(C)=C/C=C\[C@H](OC)[C@@H](OC(N)=O)/C(C)=C/[C@@H]1C)C2=O` [herbimycin A], “inhibited at least some of the ionophore's effects”.
`C[C@H](CCC(=O)O)C[C@H](C)C[C@H](C)C(=O)/C=C(\O)[C@H](C)C[C@H](C)C/C=C/[C@@H](C)[C@@H](O)[C@@H](C)[C@@H](O)C[C@@H]1CC[C@@](C)([C@H]2CC[C@@](C)([C@@H](C)O)O2)O1` [ionomycin]: the “activation and dendritic cell phenotypic conversion of pooled monocyte plus DC fractions” value (added at the beginning of a 24-48 hr culture period) is “uniform activation and dendritic cell phenotypic conversion”.
In the case of `C=C1[C@@H](O)[C@@H]2O[C@]3(CC[C@H](/C=C/[C@@H](C)[C@@H]4CC(C)=C[C@@]5(O[C@H](C[C@@](C)(O)C(=O)O)CC[C@H]5O)O4)O3)CC[C@H]2O[C@@H]1[C@@H](O)C[C@H](C)[C@H]1O[C@@]2(CCCCO2)CC[C@H]1C` [okadaic acid], the “effect of agent on ionophore-induced activated myeloid dendritic cell phenotype” value was “enhanced CD14 downregulation and upregulation of costimulatory, MHC, and other molecule expression”.
On the same count and under the same terms, to `C[C@]12C=CC(=O)C=C1CC[C@@H]1[C@@H]2[C@@H](O)C[C@@]2(C)[C@H]1CC[C@]2(O)C(=O)CO` [prednisolone] belongs “inhibited at least some of the ionophore's effects”.

The values are drawn from US6358736B1, “Method for increasing the antigen presenting ability of leukemia cells” (The United States of America as represented by the …, priority 1995, dated 2002).
